For series [1], the target named is T1, 5-lipoxygenase (Cavia porcellus, UniProt A0A286X958).
T1 construct: A cytosol fraction of peritoneal exudate cell from male Hartley guinea pig (weighing 400 to 700 g) was used as 5-lipoxygenase; endogenous in cells; host or cells: cytosol fraction of peritoneal exudate cells from male Hartley guinea pig
T1 sequence (A0A286X958 1-674): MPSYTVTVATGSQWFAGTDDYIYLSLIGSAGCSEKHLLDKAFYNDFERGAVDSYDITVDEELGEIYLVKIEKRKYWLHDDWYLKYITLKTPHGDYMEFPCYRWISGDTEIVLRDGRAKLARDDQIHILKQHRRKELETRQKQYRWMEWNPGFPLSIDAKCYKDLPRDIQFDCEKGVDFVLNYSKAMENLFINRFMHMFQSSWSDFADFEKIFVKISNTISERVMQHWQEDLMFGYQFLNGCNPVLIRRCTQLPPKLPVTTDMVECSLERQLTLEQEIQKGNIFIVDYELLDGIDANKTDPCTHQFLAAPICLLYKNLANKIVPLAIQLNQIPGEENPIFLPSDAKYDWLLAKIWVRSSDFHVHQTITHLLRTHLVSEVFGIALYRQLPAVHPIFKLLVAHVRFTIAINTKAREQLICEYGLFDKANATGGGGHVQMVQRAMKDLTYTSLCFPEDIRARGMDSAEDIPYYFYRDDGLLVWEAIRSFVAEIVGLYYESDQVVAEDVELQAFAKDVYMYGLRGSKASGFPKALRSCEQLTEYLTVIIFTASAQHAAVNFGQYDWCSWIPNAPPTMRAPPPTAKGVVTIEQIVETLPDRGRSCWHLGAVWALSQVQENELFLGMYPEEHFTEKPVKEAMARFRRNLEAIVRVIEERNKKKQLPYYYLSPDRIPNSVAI
The series is described as follows: Inhibitory effect on 5-lipoxygenase activity (antiallergic activity in vitro). Type of series: biochemical, guinea pig (male Hartley). To be noted: for inhibition at 10 µM: 10^-5 M test compound, guinea pig peritoneal exudate cell cytosol, mean of 3 to 6 experiments. The protocol:
This experiment was carried out by the method of Miyamoto and Obata ["Perspectives in Prostaglandin Research", ed. by Y. Shiokawa et al., Excerpta Medica, Amsterdam-Oxford-Princeton, 1983, p.78] with minor modifications.
A cytosol fraction of peritoneal exudate cell from male Hartley guinea pig (weighing 400 to 700 g) was used as 5-lipoxygenase. As a standard reaction solution, a mixture of 50 mM potassium phosphate buffer (pH 7.4), 1 mM calcium chloride, 1 mM glutathione, 1 mM adenosine triphosphate, 10 μM indomethacin and the enzyme was used. To the reaction solution was added 0.02 μCi of [1-^14 C] arachidonic acid and the mixture was incubated at 30° C. for 5 minutes, followed by adding 0.6 ml of a cold solution comprising diethyl ether methanol -0.2 M citric acid (30 : 4 : 1) to terminate the reaction. The organic layer (300 μ1) was subjected to a thin layer chromatography plate on silica gel 60 F254 (E. Merck, West Germany) and, after developing, a radioactivity was measured by means of radiochromatogram scanner (Packard, U.S.A.) 5-Lipoxygenase activity was calculated by the following equation. [formula]
The results are shown in Table 1 in terms of mean value of 3 to 6 experiments.

Series [2] relates to passive cutaneous anaphylaxis (PCA). Kind of series: Inhibitory effect on passive cutaneous anaphylaxis (PCA) (antiallergic activity in vivo). Details: species or system rat (male Wistar). To be noted: 20 mg/kg oral, 1 hour prior to dye injection; rats; vs control group. The protocol: Male Wistar rats (weighing 130 to 190 g) were injected with a dilute solution (0.1 ml) of mouse antiserum to egg albumin, which was prepared by the method of Levine et al. [Int. Arch. Allergy Appl. […] Forty-eight hours later, 0.5% Evan's blue solution (1 ml) containing 2 mg of egg albumin was intravenously injected to tail vein of the animal. Thirty minutes after the dye injection, abdominal skin was peeled off and the area of the blueing lesions was measured. In each rat, a mean value of the two lesions was regarded as the response of the rat. The test compounds in a dose of 20 mg/kg, dissolved or suspended in a 0.5% aqueous tragacanth solution, were orally administered 1 hour prior to the dye injection.

Series [3] deals with ddY mice. Kind of series: Acute toxicity. The class given is in vivo. To be noted: 1000 mg/kg oral; male ddY mice, 7 days observation. An excerpt: Five male ddY mice weighing 25 to 29 g were used in each group.

Where a name gives a salt, the structure may show the parent alone.

Broadly, the inhibition is how much of the control response was suppressed. A low value points to a weak effect. For `Cc1cccc2c(O)c(C(=O)NCCCCN3CCN(C(c4ccccc4)c4ccccc4)CC3)cnc12` [Example 16], at 10 µM the inhibition in series [1] was 90.6%.
Take `COc1c(C(=O)NCCCCN2CCN(C(c3ccccc3)c3ccccc3)CC2)cnc2ccccc12` [Example 5, N-[4-(4-diphenylmethyl-1-piperazinyl)butyl]-4-methoxyquinoline-3-carboxamide.cndot.1/4 hydrate]: testing at 10 µM in series [1] gave an inhibition of 80.3%.
The same measure, in the same setting: the figure for `COc1ccc2ncc(C(=O)NCCCCN3CCN(C(c4ccccc4)c4ccccc4)CC3)c(O)c2c1` [Example 18] is 93.2%; for `COc1ccc2c(O)c(C(=O)NCCCCN3CCN(C(c4ccccc4)c4ccccc4)CC3)cnc2c1` [Example 19] it is 92.8%.
In the case of `N#Cc1cccc2ncc(C(=O)NCCCCN3CCN(C(c4ccccc4)c4ccccc4)CC3)c(O)c12` [Example 7 (5cyano compound), N-[4-(4-diphenylmethyl-1-piperazinyl)butyl]-5-cyano-4-hydroxyquinoline-3-carboxamide], the inhibition at 10 µM in series [1] came out at 92.1%.
For the compound `CN1CCC(=C2c3ccccc3CC(=O)c3sccc32)CC1` [Ketotifen fumarate, reference compound], the “5-lipoxygenase inhibitory activity (in words)” value in series [1] (ketotifen fumarate at 10^-4 M) is on record as “did not show any significant inhibitory activity”. The “PCA inhibition (%)” value in series [2] was 54.7%.
Take `O=C(NCCCCN1CCN(C(c2ccccc2)c2ccccc2)CC1)c1cnc2cccc(O)c2c1O` [Example 4, N-[4-(4-diphenylmethyl-1-piperazinyl)butyl]-4,5-dihydroxyquinoline-3-carboxamide]: in series [1], testing at 10 µM gave an inhibition of 95.4%.
Same read-out and setting: the figure for `N#Cc1ccc2c(O)c(C(=O)NCCCCN3CCN(C(c4ccccc4)c4ccccc4)CC3)cnc2c1` [Example 7 (7cyano compound), N-[4-(4-diphenylmethyl-1-piperazinyl)butyl]-7-cyano-4-hydroxyquinoline-3-carboxamide] is 84.7%; for `Cc1ccc2c(O)c(C(=O)NCCCCN3CCN(C(c4ccccc4)c4ccccc4)CC3)cnc2c1` [Example 15] it is 93%.
With `CC(C)c1ccc2ncc(C(=O)NCCCCN3CCN(C(c4ccccc4)c4ccccc4)CC3)c(O)c2c1` [Example 17], the inhibition at 10 µM in series [1] was found to be 95.3%.
`COc1cccc2c(O)c(C(=O)NCCCCN3CCC(=C(c4ccccc4)c4ccccc4)CC3)cnc12` [Example 8, N-[4-(4-diphenylmethylene-1piperidyl)butyl]-4-hydroxy-8-methoxyquinoline-3-carboxamide.cndot.fumarate] gave an inhibition at 10 µM in series [1] of 93.3%.
Still for that read-out and setting: the figure for `CCCCOc1cccc2c(O)c(C(=O)NCCCCN3CCN(C(c4ccccc4)c4ccccc4)CC3)cnc12` [Example 20] is 94.8%.
Compound `Cc1ccc2c(O)c(C(=O)NCCCCN3CCC(=C(c4ccccc4)c4ccccc4)CC3)cnc2n1` [Example 1, N-[4-(4-diphenylmethylene-1-piperidyl)butyl]-4-hydroxy-7-methyl-1,8-naphthyridine-3-carboxamide.cndot.1/4 hydrate] came in with an inhibition at 10 µM in series [1] of 96.8%. Further, the “PCA inhibition (%)” value in series [2] came to 88.3%. The “death of the animals” value in series [3] is “no death was observed”.
For `COc1cccc2c(O)c(C(=O)NCCCCN3CCN(C(c4ccccc4)c4ccccc4)CC3)cnc12` [Example 3, N-[4-(4-diphenylmethyl-1-piperazinyl)butyl]-4-hydroxy-8-methoxyquinoline-3-carboxamide] the same measures were 91.3%, 56.0% and “no death was observed”.
On to `Cc1ccc2c(O)c(C(=O)NCCCCN3CCN(C(c4ccccc4)c4ccccc4)CC3)cnc2n1` [Example 2, N-[4-(4-diphenylmethyl-1-piperazinyl)butyl]-4-hydroxy-7-methyl-1,8-naphthyridine-3-carboxamide.cndot.1/2 hydrate], for which, in series [1], the inhibition at 10 µM worked out at 79.6%. In series [2], the “PCA inhibition (%)” value is reported as 80.7%.
Take `Cc1ccc(C(=O)NCCCCN2CCN(C(c3ccccc3)c3ccccc3)CC2)c(O)n1` [Example 10, N-[4-(4-diphenylmethyl-1-piperazinyl)butyl]-2-hydroxy-6-methylpyridine-3-carboxamide]: in series [2], the “PCA inhibition (%)” value is on record as 84.8%.
In the case of `CC(C)c1ccc(C(=O)NCCCCN2CCN(C(c3ccccc3)c3ccccc3)CC2)c(O)n1` [Example 6, N-[4-(4-diphenylmethyl-1-piperazinyl)butyl]-2-hydroxy-6-isopropylpyridine-3carboxamide], in series [1], the inhibition at 10 µM was 75.1%. Further, the “PCA inhibition (%)” value in series [2] stood at 93.0%. Besides, the “death of the animals” value in series [3] is “no death was observed”.
`Cc1ccc2ncc(C(=O)NCCCCN3CCN(C(c4ccccc4)c4ccccc4)CC3)c(O)c2c1` [Example 14] registered an inhibition at 10 µM in series [1] of 93.7%.
For `O=C(NCCCCN1CCN(C(c2ccccc2)c2ccccc2)CC1)c1cnc2ccccc2c1O` [Example 12], in series [1], the inhibition at 10 µM amounted to 83.7%.
Still for that read-out and setting: the figure for `N#Cc1ccc2ncc(C(=O)NCCCCN3CCN(C(c4ccccc4)c4ccccc4)CC3)c(O)c2c1` [Example 21] is 67.9%; for `Cc1ccc2c(S)c(C(=O)NCCCCN3CCN(C(c4ccccc4)c4ccccc4)CC3)cnc2n1` [Example 9, N-[4-(4-diphenylmethyl-1-piperazinyl)butyl]-4-mercapto-7-methyl-1,8-naphthyridine-3-carboxamide.cndot.fumarate.cndot.1/2 hydratet] it is 88.3%.
